Test results taken from ChEMBL document CHEMBL3045348, “Thiazoles: having diverse biological activities” (Med Chem Res, 2012).

Assay: Antioxidant activity assessed as trolox equivalents of ABTS radical scavenging activity
Format: functional

COc1ccc(Nc2nc(N)c(C(=O)c3ccccc3)s2)cc1
Activity: 0.17 µM
